# Data taken from patent US10294229B2, “Heteroaryl substituted aminopyridine compounds” (BRISTOL-MYERS SQUIBB COMPANY, priority 2015, dated 2019).
# pEC50, pIC50: −log10 of the molar value.
# Key:
# IRAK4 = IRAK4 (Homo sapiens (Human), UniProt Q9NWZ3); assay: IRAK4 Inhibition Assay; type: biochemical; details: ATP 500 μM; IRAK4 0.6 nM
# How it was run: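 Mobility-shift kinase assay: 0.6 nM IRAK4, 500 μM ATP, 1.5 μM fluorescent peptide, 60 min, room temperature. Percent inhibition was normalised between enzyme-free and DMSO-only wells.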
# [1] = Caco-2 Permeability Assay; type: in vitro ADME; details: human, Caco-2, test compound 3 μM
# How it was run: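 Bidirectional permeability measured over 2 h at 37° C, compound dosed at 3 μM in the donor compartment (apical for absorptive, basolateral for secretive) with plain buffer as receiver.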
# [2] = tested on: Human whole blood stimulated with a TLR2 agonist (lipoteichoic acid), IL-6 levels; assay: IRAK4 Whole Blood Assay; type: cell-based; details: Homo sapiens, lipoteichoic acid 10 μg/mL
# How it was run: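 IL-6 was quantified by cytometric bead assay in supernatants of human blood (ACD-A) stimulated for 5 h with lipoteichoic acid at 10 μg/mL final. Compound exposure preceded stimulation for 60 min at 37 °C, 5% CO2.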
# Sequence of IRAK4 (Q9NWZ3 whole entry, species assumed): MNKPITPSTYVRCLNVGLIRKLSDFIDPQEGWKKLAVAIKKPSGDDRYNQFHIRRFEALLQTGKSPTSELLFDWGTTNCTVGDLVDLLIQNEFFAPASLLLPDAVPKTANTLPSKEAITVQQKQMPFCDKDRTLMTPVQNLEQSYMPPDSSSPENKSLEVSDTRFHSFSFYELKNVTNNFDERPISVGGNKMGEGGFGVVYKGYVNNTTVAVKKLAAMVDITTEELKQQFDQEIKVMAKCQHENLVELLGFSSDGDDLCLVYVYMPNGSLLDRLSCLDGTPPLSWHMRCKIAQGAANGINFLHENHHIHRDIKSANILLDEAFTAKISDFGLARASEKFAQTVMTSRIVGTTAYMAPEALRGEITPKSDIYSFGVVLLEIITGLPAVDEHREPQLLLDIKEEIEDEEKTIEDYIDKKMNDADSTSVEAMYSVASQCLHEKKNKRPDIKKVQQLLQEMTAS
pIC50 (IRAK4),"Papp at 2 h, 3 µM [1] [×10⁻⁶ cm/s]",pEC50 [2],Structure (SMILES)
9.00,25,6.54,"CC(=O)N1CCC[C@@H](c2cc(-c3cnc(-n4ncc5cc(C#N)cnc54)cc3NC(C)C)on2)C1 [Example 407, (R)-1-(5-(3-(1-acetylpiperidin-3-yl)isoxazol-5-yl)-4-(isopropylamino)pyridin-2-yl)-1H-pyrazolo[3,4-b]pyridine-5-carbonitrile]"
8.40,13.9,6.40,"CC(C)Nc1cc(-n2ncc3cc(C#N)cnc32)ncc1-c1cc(C2CCCCN2)no1 [Example 412, (S)-1-(4-(isopropylamino)-5-(3-(piperidin-2-yl)isoxazol-5-yl)pyridin-2-yl)-1H-pyrazolo[3,4-b]pyridine-5-carbonitrile]"
8.15,< 1.5,6.60,"CNCCCc1cc(-c2cnc(-n3ncc4cc(C#N)cnc43)cc2NC(C)C)on1 [Example 414, 1-(4-(isopropylamino)-5-(3-(3-(methylamino)propyl)isoxazol-5-yl)pyridin-2-yl)-1H-pyrazolo[3,4-b]pyridine-5-carbonitrile]"
8.52,18.3,6.59,"CC(=O)N(C)CCCc1cc(-c2cnc(-n3ncc4cc(C#N)cnc43)cc2NC(C)C)on1 [Example 415, N-(3-(5-(6-(5-cyano-1H-pyrazolo[3,4-b]pyridin-1-yl)-4-(isopropylamino)pyridin-3-yl)isoxazol-3-yl)propyl)-N-methylacetamide]"
8.15,29.2,6.47,"CC(=O)N1CCC[C@@H]1c1cc(-c2cnc(-n3ncc4cc(C#N)cnc43)cc2NC(C)C)on1 [Example 417, (R)-1-(5-(3-(1-acetylpyrrolidin-2-yl)isoxazol-5-yl)-4-(isopropylamino)pyridin-2-yl)-1H-pyrazolo [3,4-b]pyridine-5-carbonitrile]"
8.22,43.8,6.46,"CC(C)Nc1cc(-n2ncc3cc(C#N)cnc32)ncc1-c1cc([C@@H]2COC(C)(C)O2)no1 [Example 420, (R)-1-(5-(3-(2,2-dimethyl-1,3-dioxolan-4-yl)isoxazol-5-yl)-4-(isopropylamino)pyridin-2-yl)-1H-pyrazolo[3,4-b]pyridine-5-carbonitrile]"
8.52,32.2,6.70,"CC(=O)N1CCC(F)(c2cc(-c3cnc(-n4ncc5cc(C#N)cnc54)cc3NC(C)C)on2)CC1 [Example 421, 1-(5-(3-(1-acetyl-4-fluoropiperidin-4-yl)isoxazol-5-yl)-4-(isopropylamino)pyridin-2-yl)-1H-pyrazolo[3,4-b]pyridine-5-carbonitrile]"
8.52,31.7,6.32,"CC(C)Nc1cc(-n2ncc3cc(C#N)cnc32)ncc1-c1cc(C2CC(F)(F)CCN2)no1 (stereo not drawn) [Example 422, 1-(5-(3-(4,4-difluoropiperidin-2-yl)isoxazol-5-yl)-4-(isopropylamino)pyridin-2-yl)-1H-pyrazolo [3,4-b]pyridine-5-carbonitrile]"
8.70,39.4,6.80,"CC(C)Nc1cc(-n2ncc3cc(C#N)cnc32)ncc1-c1cc(C2COC(C)(C)CN2)no1 (stereo not drawn) [Example 423, 1-(5-(3-(6,6-dimethylmorpholin-3-yl)isoxazol-5-yl)-4-(isopropylamino)pyridin-2-yl)-1H-pyrazolo[3,4-b]pyridine-5-carbonitrile]"

Structure (SMILES),pIC50 (IRAK4),"Papp at 2 h, 3 µM [1] [×10⁻⁶ cm/s]",pEC50 [2]
"CC(=O)N1C2CCC1CC(c1cc(-c3cnc(-n4ncc5cc(C#N)cnc54)cc3NC(C)C)on1)C2 (stereo not drawn) [Example 419, 1-(5-(3-(8-acetyl-8-azabicyclo[3.2.1]octan-3-yl)isoxazol-5-yl)-4-(isopropylamino)pyridin-2-yl)-1H-pyrazolo[3,4-b]pyridine-5-carbonitrile]",8.70,19.9,6.37
